Laboratory results reported in article PMC7774326, “Inhibition of Soybean 15-Lipoxygenase and Human 5-Lipoxygenase by Extracts of Leaves, Stem Bark, Phenols and Catechols Isolated From Lithraea caustica (Anacardiaceae)” (Frontiers in Pharmacology, 2020).
Like-named read-outs stand apart in the source and are kept apart here.

How the values were obtained:
5-hLOX = test system: 5-hLOX; design: method as in Sadik et al., 2003; conditions: known flavonoid inhibitors of 5-hLOX; ref Sadik et al., 2003; cited from earlier work
[1] = biological target: T1, 5 human lipoxygenase (5-hLOX) (Homo sapiens, UniProt P09917); assay: In vitro assay of 5 human lipoxygenase inhibition; type: biochemical
T1 construct: purchased Cayman Chemical 60402
T1 sequence (P09917 1-674): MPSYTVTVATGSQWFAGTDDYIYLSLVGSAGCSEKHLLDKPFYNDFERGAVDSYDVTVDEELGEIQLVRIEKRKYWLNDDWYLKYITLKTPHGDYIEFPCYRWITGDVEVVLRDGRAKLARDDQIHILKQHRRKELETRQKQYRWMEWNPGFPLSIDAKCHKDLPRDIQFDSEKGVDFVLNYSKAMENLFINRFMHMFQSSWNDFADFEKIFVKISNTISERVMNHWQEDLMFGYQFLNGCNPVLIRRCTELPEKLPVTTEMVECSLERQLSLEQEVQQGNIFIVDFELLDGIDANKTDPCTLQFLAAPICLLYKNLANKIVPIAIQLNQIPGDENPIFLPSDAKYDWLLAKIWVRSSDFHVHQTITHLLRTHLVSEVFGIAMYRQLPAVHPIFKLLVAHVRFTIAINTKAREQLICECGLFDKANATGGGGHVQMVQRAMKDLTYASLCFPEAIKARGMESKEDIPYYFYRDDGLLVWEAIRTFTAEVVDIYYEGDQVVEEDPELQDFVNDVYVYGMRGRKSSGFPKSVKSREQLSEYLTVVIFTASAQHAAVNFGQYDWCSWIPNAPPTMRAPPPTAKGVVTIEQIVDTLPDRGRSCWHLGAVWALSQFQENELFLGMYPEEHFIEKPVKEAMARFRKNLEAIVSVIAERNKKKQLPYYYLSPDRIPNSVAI
Procedure: Assays of inhibition of 5-hLOX were performed using a previous published methodology ([Vásquez-Martínez et al., 2019]), with minor modifications. In shortly, the enzyme (Cayman Chemical Item No. 60402) was diluted (1:500) in the assay buffer (HEPES 50 mM, EDTA 2 mM, ATP 10 μM and CaCl2 10 μM at pH 7.5) and mixed with 10 μM of 2′,7′-dichlorofluorescin diacetate (H2DCFDA) dye. The reaction mixture was incubated for 15 min in the assay plate. Subsequently, 33.3 μl of assay buffer was added per well, and 3.3 μl of inhibitor was added to a final concentration of 10 μM; this reaction mixture was incubated for 30 min. The reaction was started by addition of AA (3.3 μM) and was incubated for 1 h and fluorescence was read in a multimode detector Synergy™ HT Multi-Mode Microplate Reader (Biotek, Winooski, VT, United States) at 480 nm excitation/ 520 nm emission after a reaction that had proceeded for 1 h at room temperature. The IC50 values were obtained using the nonlinear curve- fitting program of Graph Pad Prism Demo.

[2] = biological target: T2, 15 soybean lipoxygenase (15-sLOX) (Glycine max, UniProt P08170); assay: In vitro assay of 15 soybean lipoxygenase inhibition; type: biochemical
T2 construct: purchased Cayman Chemical 60712
T2 sequence (P08170 1-839): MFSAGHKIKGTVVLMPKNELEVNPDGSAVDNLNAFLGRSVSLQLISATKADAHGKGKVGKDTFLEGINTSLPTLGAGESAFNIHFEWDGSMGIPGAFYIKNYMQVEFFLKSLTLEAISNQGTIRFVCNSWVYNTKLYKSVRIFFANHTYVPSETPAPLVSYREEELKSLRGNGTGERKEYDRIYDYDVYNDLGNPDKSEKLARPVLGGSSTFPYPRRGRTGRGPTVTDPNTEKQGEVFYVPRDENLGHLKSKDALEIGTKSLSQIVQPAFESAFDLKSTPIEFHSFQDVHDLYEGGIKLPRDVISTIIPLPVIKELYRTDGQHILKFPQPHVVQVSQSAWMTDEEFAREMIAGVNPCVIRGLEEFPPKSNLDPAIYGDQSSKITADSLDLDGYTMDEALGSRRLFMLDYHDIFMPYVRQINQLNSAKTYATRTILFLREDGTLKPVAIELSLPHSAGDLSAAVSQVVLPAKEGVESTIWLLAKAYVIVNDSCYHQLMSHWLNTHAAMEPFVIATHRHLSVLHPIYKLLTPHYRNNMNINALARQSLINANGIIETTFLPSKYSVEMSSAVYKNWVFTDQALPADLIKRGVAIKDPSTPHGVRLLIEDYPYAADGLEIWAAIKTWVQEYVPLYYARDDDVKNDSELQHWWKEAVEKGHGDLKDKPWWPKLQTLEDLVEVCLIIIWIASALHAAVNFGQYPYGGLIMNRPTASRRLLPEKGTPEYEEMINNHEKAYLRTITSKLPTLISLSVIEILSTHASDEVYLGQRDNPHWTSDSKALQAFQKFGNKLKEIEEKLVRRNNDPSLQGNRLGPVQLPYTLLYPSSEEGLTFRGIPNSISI
Procedure: Assays of inhibition of 15-sLOX were performed using a previous published methodology ([Tirapegui et al., 2017]), with minor modifications. In shortly, the activity of 15-sLOX (Cayman Chemical Item No. 60712) was determined following the formation of reaction products at 234 nm (ε = 25,000 M^−1cm^−1) with a Perkin-Elmer Lambda 25 UV/Vis (LabMakelaar Benelux B.V. Zuid-Holland, Nederland). All reactions were performed at a final volume of 2 ml and stirred using a magnetic bar at room temperature. The reaction medium used contained 0.1 M HEPES buffer (pH 7.4), Triton X-100 0.01%, and the linoleic acid substrate at a 10 μM concentration determine preliminary percent inhibition (% I). The concentration was determined quantitatively by allowing the enzymatic reaction to go to completion. The reaction was carried out by adding the inhibitor (sample) in methanol to the cuvette with the substrate buffer, and finally the enzyme was added. Nordihydroguaiaretic acid was used as positive control. Assays were performed in duplicate on two different days. IC50 values were determined by measuring enzyme activity at different concentrations of inhibitor dissolved in methanol; in the range of the initial velocity of the enzyme reaction. Finally, the inhibition% vs. the inhibitor concentration was plotted, giving a hyperbolic saturation curve using GraphPad Prism Demo.

[3] = class symbol NA, read-out: IC50 5-hLOX Inhibition

Compound	IC50 (5-hLOX) [µM]	IC50 [1, 3] [µM]	IC50 [2] [µM]	IC50 [1] [µM]
Oc1cc(O)c2c(c1)O[C@H](c1ccc(O)c(O)c1)[C@H](O)C2 [(−)-epicatechin]	22			
O=C(O[C@@H]1Cc2c(O)cc(O)cc2O[C@@H]1c1cc(O)c(O)c(O)c1)c1cc(O)c(O)c(O)c1 [(−)-epigallocatechin gallate]	3.1			
O=c1c(O)c(-c2ccc(O)c(O)c2)oc2cc(O)cc(O)c12 [quercetin]	0.6			
CCCCCCCCCCCCCCCc1cccc(OC(C)=O)c1OC(C)=O [Compound 5]		> 124	> 124	
CCCCCCCCCCCCCCCc1cccc(O)c1O [Compound 3, 3-n-pentadecylcatechol]			55.3	2.74
CCCCC=CCCCCCCCCCc1cccc(OC(C)=O)c1OC(C)=O [Compound 4]		> 124	> 124	
CCCC/C=C\CCCCCCCCCc1cccc(O)c1O [Compound 2, 3-[(10Z)-pentadec-10′-en-1-yl]-catechol]			54.8	2.09
